# Structures can show the parent of a compound that is named as a salt.
# Tests used:
# SB.mhdgc-1 [1] = assay: viability at highest tested concentration (MAXR) relative to DMSO; higher = less cytotoxic; conditions: SB.mhdgc-1 (hereditary c.1380delA CDH1 gastric cancer)
# Procedure, shortened: (§1)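 Using a pintool, 23 nL of compound in DMSO was transferred at 11 threefold-diluted concentrations onto patient-derived gastric cancer cells, hereditary or sporadic, plated at 500 cells in 5 μL medium per 1536 well. CellTiter-Glo luminescence was read after 48 h. Each value is viability normalised to DMSO, either at the highest concentration or as trapezoidal area under the curve.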
# SB.msgc-1 [2] = assay: as above; conditions: SB.msgc-1 (sporadic gastric cancer)
# Procedure, shortened: as §1
# SB.mhdgc-1 [3] = assay: area under the dose-response curve of % viability (trapezoidal, 11 doses) (% viability x log10 concentration); higher = less cytotoxic; conditions: SB.mhdgc-1 (hereditary c.1380delA CDH1 gastric cancer)
# Procedure, shortened: as §1
# SB.msgc-1 [4] = assay: as above; conditions: SB.msgc-1 (sporadic gastric cancer)
# Procedure, shortened: as §1
SMILES,viability (SB.mhdgc-1 [1]) [%],viability (SB.msgc-1 [2]) [%],area under the dose-response curve (SB.mhdgc-1 [3]),area under the dose-response curve (SB.msgc-1 [4])
CN[S+](=O)([O-])CCc1ccc2[nH]cc(C3CCN(C)CC3)c2c1 [Naratriptan hydrochloride] (top concentration 46.0829 µM),16.1,17.5,282,252
Cc1ccc2nc(NCCN)c3ncc(C)n3c2c1 (top concentration 46.0829 µM),12.4,41.7,366,482
Nc1ccc(C(=O)Nc2cccc(-c3nc(N4CCOCC4)c4oc5ncccc5c4n3)c2)cn1 (top concentration 46.0829 µM),17.6,41.6,452,448
C[C@H](Cc1ccc(O)c(O)c1)[C@@H](C)Cc1ccc(O)c(O)c1 [Masoprocol] (top concentration 46.0829 µM),97.7,72.6,567,526
CC=CC1=C(C(=O)O)N2C(=O)[C@@H](NC(=O)[C@H](N)c3ccc(O)cc3)[C@H]2SC1.O [Cefprozil] (top concentration 46.0829 µM),4.42,92.3,516,573
C=C[C@H]1CN2CCC1C[C@@H]2[C@@H](O)c1ccnc2ccccc12 (stereo partly specified) [Cinchonine dihydrochloride] (top concentration 46.0829 µM),32.1,8.49,528,266
O=[N+]([O-])c1ccc(Nc2ccccc2-c2ccccc2)c2nonc12 (top concentration 46.0829 µM),35.7,42.5,423,436
CC(=O)O[C@H]1C[C@@H]2CC[C@@H]3[C@H](CC[C@@]4(C)[C@H]3C[C@H]([N+]3(C)CCCCC3)[C@@H]4OC(C)=O)[C@@]2(C)C[C@@H]1[N+]1(C)CCCCC1 [Pancuronium bromide] (top concentration 46.0829 µM),71.7,39.2,588,499
CNC(=O)[C@H](CC/1=C/N=C\2/C=C\C\C=C12)NC(=O)[C@H](CC(C)C)CC(=O)NO [GM-6001] (top concentration 46.0829 µM),41,45.5,340,389
CCC(=O)N1CCN(CC1)C2=C(C=C(C=C2)N3C(=O)\C=C/C4=C3C5=CC(=CC=C5N=C4)C6=CN=C7C=CC=CC7=C6)C(F)(F)F [Torin-1] (top concentration 46.0829 µM),28.6,52.9,299,426
CC(=O)Nc1ccc([C@H](C)C(=O)Nc2ncc(C(C)C)s2)cc1 (top concentration 46.0829 µM),51.4,45.1,340,425
CC(=O)Nc1ccc(OC[C@](C)(O)C(=O)Nc2ccc([N+](=O)[O-])c(C(F)(F)F)c2)cc1 [Andarine] (top concentration 46.0829 µM),88.6,57.7,425,302
CC(C)[C@H]1C(=O)N[C@H](CO)Cc2c[nH]c3cccc(c23)N1C [(-)-Indolactam V] (top concentration 46.0829 µM),115,67.3,504,402
CCCCOc1c(C(=O)c2c(F)cc(C)cc2F)cnc2[nH]ncc12 (top concentration 46.0829 µM),39.2,43.7,370,460
C[C@@H](NCCCc1cccc(C(F)(F)F)c1)c1cccc2ccccc12 [Cinacalcet] (top concentration 46.0829 µM),115,108,546,587
NC[C@H]1O[C@H](O[C@H]2[C@H](O)[C@@H](O[C@H]3O[C@H](CO)[C@@H](O)[C@H](N)[C@H]3O)[C@H](N)C[C@@H]2N)[C@H](N)C[C@@H]1O [Tobramycin] (top concentration 46.0829 µM),110,112,536,515
CN(C)CCCN1c2ccccc2CCc2ccc(Cl)cc21 [Clomipramine hydrochloride] (top concentration 46.0829 µM),10.3,19.4,357,415
CNC(=O)c1ccccc1Sc1ccc2c(/C=C/c3ccccn3)n[nH]c2c1 [Axitinib] (top concentration 46.0829 µM),51.1,52.1,505,494
Oc1ccc(OCc2ccccc2)cc1 [Monobenzone] (top concentration 46.0829 µM),83.9,96.2,588,568
